Converted amounts (≈) assume the structure as drawn. Read-outs that look alike come from different tables or passages of the source.
Experiments:
[1] = system: HT29 colon cancer cell line; experiment: tumor cell proliferation test (EZ4U tetrazolium), HT29; assay type: cell-based; conditions: Homo sapiens, HT-29, 96 h, 4 days, read-out: inhibition of cellular proliferation; for inhibition at 200 µg/mL: HT29, 200 μg/ml; for inhibition at 400 µg/mL: HT29, 400 μg/ml
Protocol: (§1) The compounds of the invention were tested using the pancreas tumor cell lines MIYPaCa2 and BxPC3, the breast cancer cell lines MDA-MB-435 and BT20, as well as the colon cancer cell lines Colo205 and HT29. The cells were placed in culture medium (RPMI-1640 with 10% fetal calf serum and 4 mM glutamine) in 96-well microtiter plates to make 10,000 cells per well. The inventive components to be tested were diluted in microtiter plates according to the well-known procedure and incubated for 4 days under cell culture conditions (37° C., 5% CO2).
(§2) Following incubation, the proliferation was tested using a tetrazolium-based EZ4U kit from Biomedica (Vienna, Austria). The optical density (OD) of each well was determined by means of an ELISA Reader, and the control medium obtained was set to 100% (OD490 nm=0.5 to 1.5). The values in Table 1 are given in %, showing the inhibition of cellular proliferation, the concentration being 400 μg/ml (higher value) and 200 μg/ml (lower value).

[2] = system: BT20 breast cancer cell line; experiment: tumor cell proliferation test (EZ4U tetrazolium), BT20; assay type: cell-based; conditions: Homo sapiens, BT-20, 96 h, 4 days, read-out: inhibition of cellular proliferation; for inhibition at 200 µg/mL: BT20, 200 μg/ml; for inhibition at 400 µg/mL: BT20, 400 μg/ml
Protocol: as §1, §2

[3] = system: all 6 cell lines (MIA-PaCa2, Colo205, BxPC3, MDA-MB435, BT20, HT29); experiment: tumor cell proliferation test, mean value for all 6 cell lines; assay type: cell-based; conditions: read-out: inhibition, mean value±SEM for all 6 cell lines
Protocol: as §1, §2

[4] = system: Colo205 colon cancer cell line; experiment: tumor cell proliferation test (EZ4U tetrazolium), Colo205; assay type: cell-based; conditions: for inhibition at 200 µg/mL / inhibition at 400 µg/mL / IC50: Homo sapiens
Protocol: as §1, §2
(§3) In further tests, substances were dissolved in water, and their effect on the colon adenocarcinoma cell line Colo205 and pancreas adenocarcinoma cell line BxPC3 as targets was tested. The results obtained, in IC50 concentrations in μg/ml, are illustrated in Table 2.
(§4) A proliferation test—as described above—with an initial dilution of 400 μg/ml was carried out, either alone or in combination with 400, 200 or 100 μg of CHP. The cell lines used are illustrated in Table 3. […] Frequently, the proliferation is increased, or the inhibition achieved with specific substances is lower when using combined agents. The effect of CHP alone is shown on the left in the table, below each specified cell line, for the highest concentration of CHP (400 μg/ml).
(§5) Furthermore, (R)-(+)-α,α-diphenyl-2-pyrrolidinemethanol and (S)-(−)-α,α-diphenyl-2-pyrrolidinemethanol were tested. […] The results are given as IC50 (μg/ml).

[5] = system: BxPC3 pancreas tumor cell line; experiment: tumor cell proliferation test (EZ4U tetrazolium), BxPC3; assay type: cell-based; conditions: for inhibition at 200 µg/mL / inhibition at 400 µg/mL / IC50: Homo sapiens; for inhibition at 200 µg/mL / inhibition at 400 µg/mL: BXPC-3, 96 h, read-out: inhibition of cellular proliferation
Protocol: as §1, §2, §3, §5

[6] = system: MDA-MB435 breast cancer cell line; experiment: tumor cell proliferation test (EZ4U tetrazolium), MDA-MB435; assay type: cell-based; conditions: Homo sapiens, MDA-MB-435, 96 h, 4 days, read-out: inhibition of cellular proliferation; for inhibition at 200 µg/mL: MDA-MB435, 200 μg/ml; for inhibition at 400 µg/mL: MDA-MB435, 400 μg/ml
Protocol: as §1, §2

[7] = system: MIA-PaCa2 pancreas tumor cell line; experiment: tumor cell proliferation test (EZ4U tetrazolium), MIA-PaCa2; assay type: cell-based; conditions: Homo sapiens; for inhibition at 200 µg/mL / inhibition at 400 µg/mL: MIA PaCa-2, 96 h, read-out: inhibition of cellular proliferation; for IC50: MIA PaCa-2
Protocol: as §1, §2, §5

Pana -1 pancreas cancer = experiment: tumor cell proliferation test, Pana -1; assay type: cell-based
Protocol: as §1, §2, §5

[8] = system: T47D breast cancer cell line; experiment: tumor cell proliferation test, T47D; assay type: cell-based; conditions: for IC50 / inhibition at 400 µg/mL: Homo sapiens
Protocol: as §1, §2, §4, §5

[9] = system: SW620 colon cancer cell line; experiment: tumor cell proliferation test, SW620; assay type: cell-based; conditions: for inhibition at 400 µg/mL: Homo sapiens
Protocol: as §1, §2, §4

[10] = repeated oral administration to rats over 28 days, LC/MS of serum and urine; assay type: in vivo; conditions: repeated oral administration over 28 days
Protocol: cis-4-Hydroxy-L-proline was repeatedly administered orally to rats over a period of 28 days. cis-4-Hydroxy-L-proline was analyzed in serum and urine samples using the LC/MS technique.

[11] = COLO 205, 96 h, Colo205, 200 μg/ml, 4 days, read-out: inhibition of cellular proliferation
[12] = COLO 205, 96 h, Colo205, 400 μg/ml, 4 days, read-out: inhibition of cellular proliferation
[13] = COLO 205, substances dissolved in water, read-out: IC50 Colo205
[14] = BXPC-3, substances dissolved in water, read-out: IC50 BxPC3
[15] = COLO 205, 96 h, read-out: inhibition of cellular proliferation

Compound	inhibition at 200 µg/mL [1] [%]	inhibition at 400 µg/mL [1] [%]	inhibition at 200 µg/mL [2] [%]	inhibition at 400 µg/mL [2] [%]	inhibition at 400 µg/mL ([3]; 400 μg/ml) [%]	inhibition at 200 µg/mL [4, 11] [%]	inhibition at 400 µg/mL [4, 12] [%]	inhibition at 200 µg/mL ([5]; BxPC3, 200 μg/ml, 4 days) [%]	inhibition at 400 µg/mL ([5]; BxPC3, 400 μg/ml, 4 days) [%]	inhibition at 200 µg/mL [6] [%]	inhibition at 400 µg/mL [6] [%]	inhibition at 200 µg/mL ([7]; MIA-PaCa2, 200 μg/ml, 4 days) [%]	inhibition at 400 µg/mL ([7]; MIA-PaCa2, 400 μg/ml, 4 days) [%]	IC50 [4, 13] [µg/mL]	IC50 [5, 14] [µg/mL]	other results
CCOC(=O)[C@@H]1CC(O)CN1C (stereo partly drawn) [Substance A1.21, 4-hydroxy-1-methylproline ethyl ester]	7.3	0.5	22.2	80.1	36.5 ± 11.4	23.7	32.7	25	13.4	15.6	53.5	7.4	38.8			
CC(C)COC(=O)[C@@H]1CC(OC(=O)Nc2ccccc2)CN1C (stereo partly drawn) [Substance A2.23, 1-methyl-4-phenylaminocarbonyloxyproline isobutyl ester]	-5	-5.3	0	0	< 8	19.2	14.1	15.4	2.1	5.5	8.6	14.2	0.3			
OC(c1ccccc1)(c1ccccc1)[C@H]1CCCN1 [Substance 231.01, (R)-(+)-α,α-diphenyl-2-pyrrolidinemethanol]																IC50 (Pana -1 pancreas cancer): 80 µg/mL (≈ 316 µM); IC50 [8]: 130 µg/mL; IC50 ([4]; COLO 205): 45 µg/mL; IC50 ([5]; BXPC-3): 60 µg/mL (≈ 237 µM); IC50 [7]: 50 µg/mL (≈ 197 µM)
CCOC(=O)C1CC(O)C[N+]1(C)C (stereo not drawn) [Substance A1-01, 4-hydroxy-1,1-dimethylproline ethyl ester iodide]														> 400	70	
Br.CC(C)COC(=O)[C@@H]1CC(O)CN1C(c1ccccc1)c1ccccc1 (stereo partly drawn) [Substance A2-04, 4-hydroxy-1-diphenylmethylproline isobutyl ester hydrobromide]														6.2	12	
CC(C)COC(=O)C1CC(O)CN1 [Substance A2, cis-hydroxy-L-proline isobutyl ester]														18	15 (≈ 80.1 µM)	melting point: 139 °C
CC(C)COC(=O)[C@@H]1CC(O)CN1C1CCCCC1 (stereo partly drawn) [Substance A2-03, 4-hydroxy-1-cyclohexylproline isobutyl ester]														50	50 (≈ 186 µM)	
CCOC(=O)C1CC(O)CN1 [Substance A-1, cis-hydroxy-L-proline ethyl ester]														50	5 (≈ 31.4 µM)	
OC(c1ccccc1)(c1ccccc1)[C@@H]1CCCN1 [Substance 231.02, (S)-(−)-α,α-diphenyl-2-pyrrolidinemethanol]																IC50 (Pana -1 pancreas cancer): 55 µg/mL (≈ 217 µM); IC50 [8]: 190 µg/mL; IC50 ([4]; COLO 205): 45 µg/mL; IC50 ([5]; BXPC-3): 50 µg/mL (≈ 197 µM); IC50 [7]: 50 µg/mL (≈ 197 µM)
CCOC(=O)[C@@H]1CC(OC(=O)Nc2ccccc2)CN1C (stereo partly drawn) [Substance A1.23, 1-methyl-4-phenylaminocarbonyloxyproline ethyl ester]	8.5	1.9	4.4	1.3	< 8	17.2	7.3	17.8	0	8.7	4.5	16	8.3			
O=C(O)[C@@H]1C[C@H](O)CN1 [CHP, cis-4-hydroxy-L-proline, reference compound]	1.7	15.7	6.5	10.6						19.9	39.2					inhibition at 400 µg/mL ([8]; read-out: effect of CHP alone (% inhibition of proliferation, minus sign)): 17.4%; inhibition at 400 µg/mL [3]: 40 ± 10.1%; inhibition at 200 µg/mL [4, 15]: 60%; inhibition at 400 µg/mL [4, 15]: 78.2%; IC50 ([4]; COLO 205, read-out: IC50 Colo205): 90 µg/mL; inhibition at 400 µg/mL ([4]; COLO 205, read-out: effect of CHP alone (% inhibition of proliferation, minus sign)): 46%; inhibition at 400 µg/mL ([9]; SW-620, CHP 400 μg/ml alone, read-out: effect of CHP alone (% inhibition of proliferation, minus sign)): 14%; inhibition at 200 µg/mL [5]: 27.8%; inhibition at 400 µg/mL [5]: 44.5%; IC50 ([5]; BXPC-3, read-out: IC50 BxPC3): 400 µg/mL (≈ 3050 µM); level of cis-4-hydroxy-L-proline in serum or urine [10]: rapidly dropped; isomers and metabolites in the investigated samples (biotransformation) ([10]; serum and urine): detection of isomers and metabolites; inhibition at 200 µg/mL [7]: 34.5%; inhibition at 400 µg/mL [7]: 51.3%
CC(C)COC(=O)[C@@H]1CC(O)CN1C (stereo partly drawn) [Substance A2.21, 4-hydroxy-1-methylproline isobutyl ester]	4.1	1.3	5.2	3.9	< 8	14.1	10	18.2	4.9	4.5	3.1	4.5	23.9			
CN1CC(O)C[C@H]1C(=O)O (stereo partly drawn) [Substance A0.21, 4-hydroxy-1-methylproline]	4.8	4.7	18.3	14.9	16.3 ± 2.7	21.1	16.3	21.9	16.2	26.9	23.2	21.1	22.8			% inhibition of proliferation (minus signs) ([8]; A0.21 100 alone (Con)): −1.8%; % inhibition of proliferation (minus signs) ([8]; A0.21 200 alone (Con)): −1.2%; inhibition at 400 µg/mL ([8]; A0.21 400 μg/ml alone (Con), read-out: % inhibition of proliferation (minus signs)): 0.4%; % inhibition of proliferation (minus signs) ([4]; Colo205, A0.21 100 alone (Con)): −3.5%; % inhibition of proliferation (minus signs) ([4]; Colo205, A0.21 200 alone (Con)): −4.0%; inhibition at 400 µg/mL ([4]; COLO 205, Colo205, A0.21 400 μg/ml alone (Con), read-out: % inhibition of proliferation (minus signs)): 8.2%; % inhibition of proliferation (minus signs) ([9]; A0.21 100 alone (Con)): −5.8%; % inhibition of proliferation (minus signs) ([9]; A0.21 200 alone (Con)): −6.3%; inhibition at 400 µg/mL ([9]; SW-620, A0.21 400 μg/ml alone (Con), read-out: % inhibition of proliferation (minus signs)): 5.2%
4-hydroxy-1,1-dimethylproline isobutyl ester iodide [Substance A2-01]																IC50 Colo205 ([4]; substances dissolved in water): >400 µg/mL; IC50 BxPC3 ([5]; substances dissolved in water): 50 µg/mL

From US20080176923A1, “Proline Derivatives Used as Pharmaceutical Active Ingredients for the Treatment of Tumors” (priority 2003, published 2008)
